Data reported in US20090192097A1, “Synergistic Herbal Composition from Bacopa Species for Management of Neurodegenerative Disorders and a Process of Preparation Thereof” (priority 2006, published 2009).

Experiments:
albino Swiss mice [1] = assay: Passive avoidance test in mice; type: in vivo, mouse; details: compared to the vehicle control; BacoMind 40, 60 and 80 mg/kg p.o. 7 days; piracetam 100 mg/kg i.p.; scopolamine 0.3 mg/kg i.p.
Procedure: (§1) Forty two albino Swiss mice (20-22 g) of either sex obtained from National Toxicology Centre, Pune were used for the study. The animals were acclimatized for a week and maintained under standard laboratory conditions, given free access to feed (Source: Laboratory prepared) and water, ad libitum.
Six albino Swiss mice of either sex were randomly allotted to each group. Group I served as the vehicle control. Group II, III and IV received BacoMind™ orally at the doses of 40, 60 and 80 mg/kg for 7 days. Piracetam was administered to group V (100 mg/kg, i.p, single dose, on 7th day 20 min before first trial) and served as the reference standard control. Group VI was administered with scopolamine (0.3 mg/kg, i.p, single dose, on 7th day 20 min before first trial) and served as the amnesia control. Group VII was administered both with BacoMind™ (60 mg/kg, p.o, for 7 days) and scopolamine (0.3 mg/kg, i.p, single dose, on 7th day 30 min after BacoMind™ treatment). Mice were placed individually on the electric grid and allowed to explore for one minute. A stimulus of 20 V with AC current of 5 mA was given and latency to reach SFZ was recorded for three consecutive times and considered as basal reading. After 1 h of the first trial, each animal was placed on the electric grid again and the latency to reach SFZ and the mistakes (descents) the animal made in 15 min were recorded and considered as parameters for acquisition and retention respectively.

albino Swiss mice [2] = assay: Elevated plus maze (EPM) test in mice; type: in vivo, mouse; details: scopolamine 0.3 mg/kg i.p. single dose, compared to the vehicle control
Procedure: as §1
Six albino Swiss mice of either sex were randomly allotted to each group. Group I served as the vehicle control. […] Piracetam was administered to group V (100 mg/kg, i.p, single dose on 7th day, 30 min before recording transfer latency) and served as the reference standard control. Group VI was administered with scopolamine (0.3 mg/kg, i.p, single dose on 7th day, 30 min before recording transfer latency) and served as the amnesia control group. […] The mice were placed individually at the end of open arm of the EPM facing away from the center. The time taken by the mouse to move into the enclosed arm was noted as transfer latency (TL). The mice were treated with the test substance/drugs as shown in the study design. […] After determination of the TL, mice were allowed to explore the maze for 2 min and then transferred to their home cages. The TL was again measured after 24 h i.e on […]. The TL was expressed as inflexion ratio.

SMILES | latency to reach SFZ (albino Swiss mice [1]) | inflexion ratio (albino Swiss mice [2]) | number of mistakes in 15 min (albino Swiss mice [1])
CN1[C@@H]2C[C@@H](OC(=O)[C@H](CO)c3ccccc3)C[C@H]1[C@@H]1O[C@@H]12 [scopolamine] | significant increase | significant decrease | –
NC(=O)CN1CCCC1=O [piracetam, Piracetam] | significantly decreased | – | significantly decreased
